Where two headings read alike, the source gives them in different places.
Tests used:
[1] = tested on: murine leukemia P388 in BDF1 mice; experiment: Antitumor activity in vivo, transplanted murine leukemia P388
Method: The study of the antitumor activity of compounds 4e and 4g was carried out using transplanted experimental murine tumor leukemia P388. In the experiment, concentrations from 1.25 to 10 mg/kg were used for 4e, and from 0.625 to 5 mg/kg for 4g. The concentrations used correspond to values from 1/8 MPD to MPD for the studied compounds.
Studies of antitumor activity were carried out on hybrid male mice BDF1 [DBA2×C57Bl6] weighing from 22 to 24 g. In the experiment, clinically healthy animals were used, which were kept in the same conditions with a 12-h light and free access to water and food. Each experimental group included six animals. Transplantation of mouse leukemia P388 was performed intraperitoneally with a concentration of 10^6 cells in 200μLof 0.9% NaCl solution per animal. Compounds 4e and 4g were dissolved in 0.9% NaCl solution and administered intraperitoneally once in the dose range 1.25–10 mg/kg and 0.625–5 mg/kg, respectively. The compounds were administered the next day after tumor cell transplantation. Control animals received 0.9% NaCl solution. The effectiveness of therapy was assessed by the increase in the average life span (ILS, %) of the animals.

[2] = tested on: glycolysis in SH-SY5Y cells; experiment: Glycolysis stress test (ECAR, Seahorse XF96e); format: cell-based, Human; conditions: 100 µM, compared with control samples
Method: Using the cell metabolism analyzer Agilent Seahorse XF96e Analyzer (Seahorse Bioscience, North Billerica, MA, USA), the rate of extracellular acidification of the medium (ECAR) in cells of tumor origin SH-SY5Y was evaluated as a glycolysis measure.
The ability of compounds to suppress anaerobic glycolysis was studied using the Agilent Seahorse XF96e Analyzer (Seahorse Bioscience, North Billerica, MA, USA) by the level of hydrogen proton production in the studied samples on cell lines of neuroblastoma SH-SY5Y using a glycolysis stress test [62]. The rate of extracellular acidification of the medium was measured in real time, which made it possible to assess the intensity of glycolysis in cells by fixing the three main parameters of the glycolytic function: basal glycolysis, glycolytic capacity, and glycolytic reserve.
SH-SY5Y cells in the exponential growth phase were seeded in a 96-well Seahorse cell culture microplate. The planting density of the cell culture was 2 × 10^4/well. […]
The test compounds were added from port A at a concentration of 100 μM. To determine the effect of test compounds on basal glycolysis of neoplastic cells, 10 mM glucose was added from port B. The maximum glycolytic capacity was assessed by injecting oligomycin at a concentration of 1 μM from port C. […]

sorghum seeds = experiment: Pre-sowing seed treatment, sowing qualities of sorghum seeds; format: in vivo; conditions: for germination energy: control 52.3; for laboratory germination: control 57
Method: (§1) When evaluating the effectiveness of treatment of wheat, alfalfa, barley, rice, and sorghum seeds as fungicidal and bactericidal agents with preparation compounds at concentrations of 10, 20, and 40 mmol, their effect on the suppression of seed infection was evaluated.
(§2) […] The sowing qualities were evaluated (germination energy for 3–4 days, laboratory germination for 7–8 days) according to GOST 12038-84 [60]. Sowing qualities of seeds were determined in wet chambers. According to the sample, 50 seeds were taken in 4-fold repetition.

BDF1 mice = experiment: Acute toxicity, single intraperitoneal administration; format: in vivo
Method: (§3) To determine LD50, a curve of increasing toxicity was built with increasing dose, based on which the following parameters were additionally determined: MTD, LD16, LD84 and LD100.
(§4) In the experiment, clinically healthy animals were used, which were kept in the same conditions with a 12-h light and free access to water and food. Each experimental group included six animals. […] Control animals received 0.9% NaCl solution. Animals were monitored continuously for 4 h on the first day after administration of the test compounds. […] Calculation of toxic doses was performed using probit analysis.

[3] = as above; format: in vivo; conditions: male, BDF1 [DBA2 × C57Bl6] hybrid, mouse, in vivo, ip, BDF1 mice, single intraperitoneal administration
Method: as §3, §4

wheat seeds = experiment: Pre-sowing seed treatment, sowing qualities of wheat seeds; format: in vivo; conditions: for germination energy: control 82; for laboratory germination: control 85.7
Method: as §1, §2

[4] = tested on: Hek 293 (human embryonic kidneys); experiment: Cell viability, MTT test, normal cell line; format: cell-based; conditions: read-out: IC50 (concentration causing 50% inhibition of cell population growth)
Method: In this work, the cytotoxic potential of the water-soluble salts based on benzofuroxan was determined by the effect of compounds on the survival of the cell tumor origin cultures (SH-SY5Y, Hep2, A549, HeLa) using the MTT test. To understand how the synthesized compounds can influence the healthy microenvironment in the body, the effect of substances on the viability of a normal Hek 293 cell culture was additionally evaluated.
Human cell cultures of tumor origin—SH-SY5Y (neuroblastoma), HeLa (cervical tumor), Hep-2 (larynx carcinoma), A549 (adenocarcinomic human alveolar basal epithelial cells)—and normal cell line Hek 293 (human embryonic kidneys), provided by the Laboratory of Tumor Cell Genetics of the Scientific Research Institute of Carcinogenesis, N.N. Blokhin National Medical Research Center of Oncology, as well as the Institute of Cytology of the Russian Academy of Sciences, were grown in a nutrient medium DMEM (PanEco, Moscow, Russia) and MEM (PanEco, Moscow, Russia), containing fetal bovine serum (10% by volume) (ThermoFisher Scientific, Paisley, UK), Glutamax (2 mM) (Gibco, Scotland, UK), and penicillin-streptomycin (1% by volume) (PanEco, Moscow, Russia). The cultivation was carried out at 37 °C in a humidified CO2 atmosphere (5%).
Cell viability was determined by MTT test. Cells were seeded in a 96-well plate in the amount of 1 × 10^4 cells/200µLof complete nutrient medium and cultured at 37 °C in CO2 (5%). After 24 h of incubation, various concentrations of test compounds in the range from 0.1 to 100 μM, were added to the cell cultures, and then the cells were cultured under the same conditions for 24 and 72 h. For each concentration, the experiment was carried out in triplicate.
All compounds were dissolved in DMSO, then diluted with the medium to the required concentration. […] The DMSO was also added to the control wells in a volume of 1%. After the incubation time, MTT (3-(4,5-dimethylthiazol-2-yl)-2,5-diphenyltetrazolium bromide, 5 mg/mL) was added to each well and plates were additionally incubated for 2 h (until the characteristic color appeared).
Using a plate analyzer (Cytation3, BioTech Instruments Inc., Winooski, VT, USA), the optical density was determined at 530 nm. The concentration value causing 50% inhibition of cell population growth (IC50) was determined from dose-dependent curves.

[5] = single intraperitoneal administration, doses given in mg/kg, probit analysis

**Q.** For O=[N+]([O-])c1c(Cl)cc2c(no[n+]2[O-])c1NCCCN1CCOCC1 [4e, 6-chloro-4-(3-(morpholino-4-ium)propylamino)-5-nitrobenzo[c][1,2,5]oxadiazole 1-oxide chloride], which “increase in the average lifespan (ILS)” value ([1]; single i.p. injection, 2.5 mg/kg) is on record?
**A.** Its value is 28%.

**Q.** And the lifespan of animals ([1]; single i.p., doses from 1/8 MPD to MPD, control animals all die by day 11)?
**A.** Its lifespan of animals is “up to 16 days”.

**Q.** What about the “suppression of glycolytic function parameters” value [2] of the same compound?
**A.** The value was 60%.

**Q.** And the germination energy (sorghum seeds; 10 mmol)?
**A.** Its germination energy is 33.3%.

**Q.** What about the laboratory germination (sorghum seeds; 10 mmol) of the same compound?
**A.** Its laboratory germination is 63.3%.

**Q.** And the germination energy (sorghum seeds; 20 mmol)?
**A.** Its germination energy is 50.5%.

**Q.** And the laboratory germination (sorghum seeds; 20 mmol)?
**A.** Its laboratory germination is 56%.

**Q.** What about the germination energy (sorghum seeds; 40 mmol) of the same compound?
**A.** Its germination energy is 50.5%.

**Q.** And the laboratory germination (sorghum seeds; 40 mmol)?
**A.** Its laboratory germination is 52.5%.

**Q.** And the “toxicity class from acute toxicity study” value (BDF1 mice; single i.p.)?
**A.** The value was “highly toxic”.

**Q.** And the “Body Weight” value (BDF1 mice; single i.p. 10 mg/kg, 0 Day, control 21.55 ± 0.28)?
**A.** The value was 20.25 ± 0.39 g.

**Q.** And the “Body Weight” value (BDF1 mice; single i.p. 10 mg/kg, 1 Day, control 21.43 ± 0.56)?
**A.** Its value is 20.39 ± 0.47 g.

**Q.** What about the “Body Weight” value (BDF1 mice; single i.p. 10 mg/kg, 2 Days, control 21.67 ± 0.77) of the same compound?
**A.** Its value is 20.51 ± 0.40 g.

**Q.** And the “Body Weight” value (BDF1 mice; single i.p. 10 mg/kg, 3 Days, control 21.99 ± 0.79)?
**A.** Its value is 20.88 ± 0.31 g.

**Q.** What about the “Body Weight” value (BDF1 mice; single i.p. 10 mg/kg, 7 Days, control 22.80 ± 0.44) of the same compound?
**A.** Its value is 21.58 ± 0.51 g.

**Q.** What about the “Body Weight” value (BDF1 mice; single i.p. 10 mg/kg, 14 Days, control 23.96 ± 0.68) of the same compound?
**A.** Its value is 22.12 ± 0.62 g.

**Q.** And the “Body Weight” value (BDF1 mice; single i.p. 15 mg/kg, 0 Day, control 21.55 ± 0.28)?
**A.** The value was 21.48 ± 0.47 g.

**Q.** What about the “Body Weight” value (BDF1 mice; single i.p. 15 mg/kg, 1 Day, control 21.43 ± 0.56) of the same compound?
**A.** The value was 21.45 ± 0.51 g.

**Q.** What about the “Body Weight” value (BDF1 mice; single i.p. 15 mg/kg, 2 Days, control 21.67 ± 0.77) of the same compound?
**A.** The value was 21.56 ± 0.49 g.

**Q.** And the “Body Weight” value (BDF1 mice; single i.p. 15 mg/kg, 3 Days, control 21.99 ± 0.79)?
**A.** The value was 21.62 ± 0.59 g.

**Q.** What about the “Body Weight” value (BDF1 mice; single i.p. 15 mg/kg, 7 Days, control 22.80 ± 0.44) of the same compound?
**A.** Its value is 22.02 ± 0.47 g.

**Q.** And the “Body Weight” value (BDF1 mice; single i.p. 15 mg/kg, 14 Days, control 23.96 ± 0.68)?
**A.** The value was 22.66 ± 0.38 g.

**Q.** What about the “Body Weight” value (BDF1 mice; single i.p. 20 mg/kg, 0 Day, control 21.55 ± 0.28) of the same compound?
**A.** Its value is 21.45 ± 0.52 g.

**Q.** What about the “Body Weight” value (BDF1 mice; single i.p. 20 mg/kg, 1 Day, control 21.43 ± 0.56) of the same compound?
**A.** Its value is 21.44 ± 0.71 g.

**Q.** And the “Body Weight” value (BDF1 mice; single i.p. 20 mg/kg, 2 Days, control 21.67 ± 0.77)?
**A.** The value was 21.88 ± 0.81 g.

**Q.** What about the “Body Weight” value (BDF1 mice; single i.p. 20 mg/kg, 3 Days, control 21.99 ± 0.79) of the same compound?
**A.** The value was 22.02 ± 0.74 g.

**Q.** What about the “Body Weight” value (BDF1 mice; single i.p. 20 mg/kg, 7 Days, control 22.80 ± 0.44) of the same compound?
**A.** The value was 22.74 ± 0.58 g.

**Q.** What about the “Body Weight” value (BDF1 mice; single i.p. 20 mg/kg, 14 Days, control 23.96 ± 0.68) of the same compound?
**A.** The value was 23.01 ± 0.65 g.

**Q.** And the “Body Weight” value (BDF1 mice; single i.p. 25 mg/kg, 0 Day, control 21.55 ± 0.28)?
**A.** The value was 22.27 ± 0.29 g.

**Q.** What about the “Body Weight” value (BDF1 mice; single i.p. 25 mg/kg, 1 Day, control 21.43 ± 0.56) of the same compound?
**A.** Its value is 21.98 g.

**Q.** What about the “Body Weight” value (BDF1 mice; single i.p. 25 mg/kg, 2 Days, control 21.67 ± 0.77) of the same compound?
**A.** Its value is 21.81 g.

**Q.** And the “Body Weight” value (BDF1 mice; single i.p. 25 mg/kg, 3 Days, control 21.99 ± 0.79)?
**A.** Its value is 21.89 g.

**Q.** And the “Body Weight” value (BDF1 mice; single i.p. 25 mg/kg, 7 Days, control 22.80 ± 0.44)?
**A.** Its value is 22.15 g.

**Q.** What about the “Body Weight” value (BDF1 mice; single i.p. 25 mg/kg, 14 Days, control 23.96 ± 0.68) of the same compound?
**A.** Its value is 22.74 g.

**Q.** And the “Body Weight” value (BDF1 mice; single i.p. 30 mg/kg, 0 Day, control 21.55 ± 0.28)?
**A.** Its value is 21.92 ± 0.13 g.

**Q.** And the “time after administration at which death of animals began” value (BDF1 mice; single i.p., doses of 15–30 mg/kg)?
**A.** The value was 5 to 30 min.

**Q.** What about the LD100 (BDF1 mice; single intraperitoneal administration, doses given in mg/kg) of the same compound?
**A.** Its LD100 is 30.

**Q.** What about the LD16 (BDF1 mice; [5]) of the same compound?
**A.** Its LD16 is 18.2.

**Q.** What about the LD84 (BDF1 mice; [5]) of the same compound?
**A.** The LD84 was 24.6.

**Q.** And the MTD at 14 days ([3]; doses given in mg/kg)?
**A.** The MTD at 14 days was 10 mg/kg.

**Q.** What about the LD50 at 14 days ([3]; probit analysis) of the same compound?
**A.** The LD50 at 14 days was 22 ± 1.33 mg/kg.

**Q.** What about the germination energy (wheat seeds; 10 mmol) of the same compound?
**A.** Its germination energy is 33.3%.

**Q.** What about the laboratory germination (wheat seeds; 10 mmol) of the same compound?
**A.** The laboratory germination was 42.8%.

**Q.** What about the “sowing qualities of seeds compared with control” value (wheat seeds; 20 mmol) of the same compound?
**A.** Its value is “higher than in the case of controls”.

**Q.** What about the germination energy (wheat seeds; 20 mmol) of the same compound?
**A.** The germination energy was 97%.

**Q.** And the laboratory germination (wheat seeds; 20 mmol)?
**A.** The laboratory germination was 97.5%.

**Q.** What about the “sowing qualities of seeds compared with control” value (wheat seeds; 40 mmol) of the same compound?
**A.** Its value is “higher than in the case of controls”.

**Q.** What about the germination energy (wheat seeds; 40 mmol) of the same compound?
**A.** The germination energy was 98%.

**Q.** And the laboratory germination (wheat seeds; 40 mmol)?
**A.** The laboratory germination was 99%.

**Q.** And the IC50 ([4]; HEK293, 24 h)?
**A.** Its IC50 is 99 ± 2.09 µM.

**Q.** What about the IC50 ([4]; HEK293, 72 h) of the same compound?
**A.** Its IC50 is 86.5 ± 5.75 µM.
